Assay results reported in patent US8513227B2, “Inhibition of inflammatory cytokine production with tanshinones” (The Feinstein Institute for Medical Research, priority 2006, dated 2013).

Legend:
HMGB1 [1] = assay: LPS-induced HMGB1 release in RAW 264.7 macrophage cultures (western blot); format: cell-based, murine
From the text: Cell culture. […] Rendon-Mitchell et al. 2003). Murine macrophages were pre-cultured in RPMI 1640 medium (Gibco BRL, Grand Island, N.Y.) supplemented with 10% fetal bovine serum (FBS) and 2 mmol/L glutamine. Human peripheral blood mononuclear cells (HuPBMCs) were isolated from the blood of healthy donors (Long Island Blood Bank, Melville, N.Y.) by density gradient centrifugation through Ficoll (Ficoll-Paque PLUS, Pharmacia, Piscataway, N.J.), and cultured in RPMI 1640 supplemented with 10% heat-inactivated human serum/0.2 mM L-glutamine as previously described (Rendon-Mitchell et al. 2003). LPS stimulation. Adherent macrophages or monocytes were gently washed with, and cultured in, serum-free OPTI-MEM I medium two hours before stimulation with bacterial endotoxin (lipopolysaccharide, LPS, E. coli 0111:B4, Sigma-Aldrich). […] Rendon-Mitchell et al. 2003; Wang et al. 1999). HMGB1 western blotting analysis. The levels of HMGB1 in the culture medium or serum were determined by western blotting analysis as previously described (Chen et al. 2004; Rendon-Mitchell et al. 2003; Wang et al. 1999). The relative band intensity was quantified using NIH image 1.59 software to determine HMGB1 levels with reference to standard curves generated with purified HMGB1.

62 cytokines = assay: Cytokine antibody array of LPS-stimulated macrophage culture medium; format: cell-based, murine
Protocol: Cytokine antibody array. Murine cytokine antibody array (Cat. No. M0308003, RayBiotech Inc., Norcross, Ga., USA), which detects 62 cytokines on one membrane, was used to determine the profile of cytokines in the culture medium following the manufacturer's instructions. Briefly, the membranes were sequentially incubated with equal volume of cell-conditioned culture medium, primary biotin-conjugated antibody, and horseradish peroxidase-conjugated streptavidin. After exposing to X-ray film, the relative signal intensity was determined using the NIH image 1.59 software with reference to the positive controls on the membrane.

HMGB1 [2] = assay: Endotoxin-induced HMGB1 cytoplasmic translocation (immunocytochemistry, cell fractionation/western blot); format: cell-based, murine
Protocol: Immunocytochemistry and cell fractionation/western blot. At 16 h after LPS stimulation, cellular HMGB1 was immunostained with anti-HMGB1 polyclonal antibodies, and images were acquired using fluorescent microscope (Carl Zeiss Microimaging, Inc., Thomwood, N.Y.) as previously described (Chen et al. 2004; Rendon-Mitchell et al. 2003). Alternatively, localization of HMGB1 was examined by a cell fractionation/western blotting technique as previously described (Tang et al. 2006). Cell fractionation is based on differential lysis of plasma and nuclear membranes by nonionic detergent (NP-40). Briefly, after selective lysis of the plasma membrane in low salt buffer (10 mM HEPES, pH 7.9; 10 mM KCl; 0.1 mM EDTA; 0.1 mM EGTA; 1 mM DTT; 0.5 mM PMSF, 1% NP-40), the intact nuclei was collected by a quick centrifugation step (7,000 g, 1 min, 4° C.), leaving the cytoplasmic fraction in the supernatant. The nuclei pellet was resuspended in NP-40 high salt buffer (20 mM HEPES, pH 7.9; 0.4 M NaCl; 1 mM EDTA; 1 mM EGTA; 1 mM DTT; 1 mM PMSF, 1% NP-40), and briefly sonicated to generate the nuclear fraction. After fractionation, the protein content of different fractions was determined by the Bradford method, and each fraction was assayed for levels of various protein by western blotting analysis using primary antibodies specific for HMGB1, a cytoplasmic protein (βactin, Santa Cruz Biotechnology), and a nuclear protein (PCNA, BD Biosciences).

[3] = system: sepsis-induced cardiovascular dysfunction; assay: Sepsis-induced cardiovascular dysfunction in CLP rats (radiolabeled microspheres); format: in vivo, Sprague-Dawley rats; details: 20 h after CLP
Protocol: Animal models of endotoxemia and sepsis. This study was approved and performed in accordance with the guidelines for the care and use of laboratory animals at the Feinstein Institute for Medical Research, Manhasset, N.Y. Endotoxemia was induced in Balb/C mice (male, 7-8 weeks) by intraperitoneal injection of bacterial endotoxin (LPS, 15 mg/kg) as previously described (Chen et al. 2005; Wang et al. 1999; Wang et al. 2006). Sepsis was induced in male Balb/C mice (7-8 weeks, 20-25 g) or Sprague-Dawley rats (290-310 g) by cecal ligation and puncture (CLP) as previously described (Wang et al. 2006; Yang et al. 2002b). Herbal components were administered intraperitoneally into mice at indicated doses and time points, and mice were monitored for survival for up to two weeks. In parallel experiments, mice were euthanized to collect blood at 28 h (following two doses of herbal components at −0.5 and +24 h) after endotoxemia, and at 52 h (following two doses of herbal components at +24 and +48 h) after CLP.
Measurement of cardiac output. A radiolabeled microsphere technique was used to measure cardiac output at 20 h after CLP or sham operation as previously described (Yang et al. 2002b). Briefly, a bolus of ^141Ce-labeled microspheres (4.0 μCi, DuPont NEN, Boston, Mass.) was injected into the left ventricle, where it mixed uniformly with the oxygenated blood at the root of the aorta, and subsequently distributed via aortic blood flow to the capillary beds within each organ. The reference blood sample was withdrawn from the femoral arterial catheter (at a rate of 0.7 ml/min) with a pump (Harvard Apparatus, Holliston, Mass.), after which isotonic sodium chloride solution was infused manually to replace the volume of blood lost. At 20 h post CLP, animals were sacrificed to harvest various organs for measurement of radioactivity with an automatic gamma counter (1470 Wizard; Wallac, Gaithersburg, Md.). Cardiac output and organ blood flow were calculated according to the following equations: cardiac output=[(RBF×CT)/Cr]× 1/100 and organ blood flow=[(RBF×Ct)/Cr]× 1/100, where RBF is the reference blood sample withdrawal rate (0.7 ml/min), CT is counts per minute of total injected dose, Ct is counts per minute per gram of tissue, and Cr is counts per minute in the reference blood sample. Stroke volume (SV) and total peripheral resistance (TPR) were calculated as previously described (Yang et al. 2002b).

HMGB1 [4] = assay: HMGB1-induced release of TNF and nitric oxide in murine macrophage cultures; format: cell-based; details: concentrations up to 100 μM, preliminary data

Cc1c(S(=O)(=O)[O-])oc2c1C(=O)C(=O)c1c-2ccc2c1CCCC2(C)C.[Na+] [TSNIIA-SS, tanshinone IIA sodium sulfonate]
effect on LPS-induced HMGB1 release (HMGB1 [1]; 100 μM): completely abrogated
IC50 (HMGB1 [1]; RAW 264.7 cells, 16 h after LPS, western blot, estimated, read-out: estimated IC50 for LPS-induced HMGB1 release): < 5 µM
inhibition of HMGB1 release on delayed addition (HMGB1 [1]; added 2 to 6 h after LPS, 25 or 50 μM, HMGB1 at 16 h): significant inhibition was retained
attenuation of LPS-induced release of IL-1α (62 cytokines; 100 μM, cytokine array): 50±7%
attenuation of LPS-induced release of IL-12p70 (62 cytokines; 100 μM, cytokine array): 45±5%
attenuation of LPS-induced release of MCP-5 (62 cytokines; 100 μM, cytokine array): 25±5%
attenuation of LPS-induced release of platelet factor 4 (PF-4) (62 cytokines; 100 μM, cytokine array): 35±6%
effect on release of most cytokines, including IL-6, IL-12p40/p70, KC, MCP-1, MIP-1α, MIP-1γ, MIP-2 and TNF (62 cytokines; 100 μM, RAW 264.7 cells or primary peritoneal macrophages): did not suppress
number of other cytokines whose release is not affected (62 cytokines; at concentrations that completely abrogate LPS-induced HMGB1 release): 58 out of 62
levels of HMGB1 in the cytoplasmic fractions after LPS (HMGB1 [2]; cell fractionation/western blot, FIG. 4B): dramatically reduced
effect on LPS-induced HMGB1 cytoplasmic translocation (HMGB1 [2]; immunostaining 16 h post LPS, 100 μM, FIG. 4A): almost completely abrogated
effect on nuclear localization of HMGB1 in resting cells (HMGB1 [2]; resting cells, data not shown): did not affect
heart rate ([3]; 15 mg/kg, CLP group 378.3±25.1, n=6, p<0.05): 334.1±25.8 beats/minutes
total peripheral vascular resistance ([3]; FIG. 8A): dose-dependently reduced
cardiac stroke volume ([3]; FIG. 8B): significantly increased
cardiac output ([3]; FIG. 8C): significantly increased
mean arterial blood pressure ([3]; CLP group 106.1±4.7, n=6, p>0.05): 96.4±8.7 mm Hg
attenuation of HMGB1-induced release of TNF (HMGB1 [4]): 50-60%
attenuation of HMGB1-induced release of nitric oxide (HMGB1 [4]): 90-95%
